Values joined by “and” are separate entries in the source; they are usually repeats but may differ in a detail not shown here. Identical values can stand only once. Each block holds one molecule with its values, some of them ahead of it.
Test system: 743489-274-T-PDC complex spheroid growth
Test: Anticancer human tumor 743489-274-T-PDC patient-derived renal cell carcinoma cell line growth inhibition [AhR]
Conditions: for viability, T/C: stronger effect = lower value
Outline: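 Complex tumor spheroids co-cultured with HUVEC and human MSC stroma; AhR antagonists tested in combination with standard-of-care and investigational agents. Top concentration at or near clinical Cmax (else 10 microM), half-log dilutions; growth expressed as percent test/control.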

[1] = curve of first compound, second compound 0.1 µM
[2] = curve of first compound, second compound 0.316 µM
[3] = curve of first compound, second compound 1 µM
[4] = curve of first compound, second compound 3.16 µM
[5] = curve of first compound, second compound 10 µM
[6] = second compound 0.1 µM, first compound 0.000949 µM
[7] = second compound 0.1 µM, first compound 0.003 µM
[8] = second compound 0.1 µM, first compound 0.00949 µM
[9] = second compound 0.1 µM, first compound 0.03 µM
[10] = second compound 0.1 µM, first compound 0.0949 µM
[11] = second compound 0.1 µM, first compound 0.3 µM
[12] = second compound 0.316 µM, first compound 0.000949 µM
[13] = second compound 0.316 µM, first compound 0.003 µM
[14] = second compound 0.316 µM, first compound 0.00949 µM
[15] = second compound 0.316 µM, first compound 0.03 µM
[16] = second compound 0.316 µM, first compound 0.0949 µM
[17] = second compound 0.316 µM, first compound 0.3 µM
[18] = second compound 1 µM, first compound 0.000949 µM
[19] = second compound 1 µM, first compound 0.003 µM
[20] = second compound 1 µM, first compound 0.00949 µM
[21] = second compound 1 µM, first compound 0.03 µM
[22] = second compound 1 µM, first compound 0.0949 µM
[23] = second compound 1 µM, first compound 0.3 µM
[24] = second compound 3.16 µM, first compound 0.000949 µM
[25] = second compound 3.16 µM, first compound 0.003 µM
[26] = second compound 3.16 µM, first compound 0.00949 µM
[27] = second compound 3.16 µM, first compound 0.03 µM
[28] = second compound 3.16 µM, first compound 0.0949 µM
[29] = second compound 3.16 µM, first compound 0.3 µM
[30] = second compound 10 µM, first compound 0.000949 µM
[31] = second compound 10 µM, first compound 0.003 µM
[32] = second compound 10 µM, first compound 0.00949 µM
[33] = second compound 10 µM, first compound 0.03 µM
[34] = second compound 10 µM, first compound 0.0949 µM
[35] = second compound 10 µM, first compound 0.3 µM
[36] = second compound 0.1 µM, first compound 0.0316 µM
[37] = second compound 0.1 µM, first compound 0.1 µM
[38] = second compound 0.1 µM, first compound 0.316 µM
[39] = second compound 0.1 µM, first compound 1 µM
[40] = second compound 0.1 µM, first compound 3.16 µM
[41] = second compound 0.1 µM, first compound 10 µM
[42] = second compound 0.316 µM, first compound 0.0316 µM
[43] = second compound 0.316 µM, first compound 0.1 µM
[44] = second compound 0.316 µM, first compound 0.316 µM
[45] = second compound 0.316 µM, first compound 1 µM
[46] = second compound 0.316 µM, first compound 3.16 µM
[47] = second compound 0.316 µM, first compound 10 µM
[48] = second compound 1 µM, first compound 0.0316 µM
[49] = second compound 1 µM, first compound 0.1 µM
[50] = second compound 1 µM, first compound 0.316 µM
[51] = second compound 1 µM, first compound 1 µM
[52] = second compound 1 µM, first compound 3.16 µM
[53] = second compound 1 µM, first compound 10 µM
[54] = second compound 3.16 µM, first compound 0.0316 µM
[55] = second compound 3.16 µM, first compound 0.1 µM
[56] = second compound 3.16 µM, first compound 0.316 µM
[57] = second compound 3.16 µM, first compound 1 µM
[58] = second compound 3.16 µM, first compound 3.16 µM
[59] = second compound 3.16 µM, first compound 10 µM
[60] = second compound 10 µM, first compound 0.0316 µM
[61] = second compound 10 µM, first compound 0.1 µM
[62] = second compound 10 µM, first compound 0.316 µM
[63] = second compound 10 µM, first compound 1 µM
[64] = second compound 10 µM, first compound 3.16 µM
[65] = second compound 10 µM, first compound 10 µM
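Note: spheroids exposed to agents for 7 days before readout.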
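Throughout, for viability, T/C: 100% = DMSO vehicle control wells.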

IC50 [1]: 0.0218 µM | IC50 [2]: 0.0248 µM | IC50 [3]: 0.0282 µM | IC50 [4]: 0.0222 µM | IC50 [5]: 0.0212 µM
Compound: CC(C)CC(NC(=O)C(Cc1ccccc1)NC(=O)c1cnccn1)B(O)O (configuration not stated) + Cc1ccccc1N=Nc1ccc(NC(=O)c2ccnn2C)c(C)c1
viability, T/C [6]: 99.1% | viability, T/C [7]: 115% | viability, T/C [8]: 97.4% | viability, T/C [9]: 31.5% | viability, T/C [10]: 13.8% | viability, T/C [11]: 4.06% | viability, T/C [12]: 83.8% | viability, T/C [13]: 98.5% | viability, T/C [14]: 100% | viability, T/C [15]: 41.1% | viability, T/C [16]: 16.2% | viability, T/C [17]: 2.22% | viability, T/C [18]: 88.9% | viability, T/C [19]: 111% | viability, T/C [20]: 113% | viability, T/C [21]: 46.9% | viability, T/C [22]: 15.2% | viability, T/C [23]: 5% | viability, T/C [24]: 89.1% | viability, T/C [25]: 94.8% | viability, T/C [26]: 94.2% | viability, T/C [27]: 34.9% | viability, T/C [28]: 17.3% | viability, T/C [29]: 2.43% | viability, T/C [30]: 77.4% | viability, T/C [31]: 97.6% | viability, T/C [32]: 89.4% | viability, T/C [33]: 33.6% | viability, T/C [34]: 10.4% | viability, T/C [35]: 4.58%

IC50 [1]: > 10 µM | IC50 [2]: > 10 µM | IC50 [3]: > 10 µM | IC50 [4]: > 10 µM | IC50 [5]: > 10 µM
Compound: CC(C)c1c(-c2ccccc2)nc2c(C#N)c[nH]n2c1=O + Cc1ccccc1N=Nc1ccc(NC(=O)c2ccnn2C)c(C)c1
viability, T/C [36]: 102% | viability, T/C [37]: 103% | viability, T/C [38]: 93.3% | viability, T/C [39]: 96% | viability, T/C [40]: 109% | viability, T/C [41]: 99.4% | viability, T/C [42]: 102% | viability, T/C [43]: 102% | viability, T/C [44]: 101% | viability, T/C [45]: 94.1% | viability, T/C [46]: 100% | viability, T/C [47]: 91.3% | viability, T/C [48]: 111% | viability, T/C [49]: 93.8% | viability, T/C [50]: 108% | viability, T/C [51]: 109% | viability, T/C [52]: 95.7% | viability, T/C [53]: 96.2% | viability, T/C [54]: 94.3% | viability, T/C [55]: 98.1% | viability, T/C [56]: 94.5% | viability, T/C [57]: 103% | viability, T/C [58]: 104% | viability, T/C [59]: 90.4% | viability, T/C [60]: 92.2% | viability, T/C [61]: 99.2% | viability, T/C [62]: 104% | viability, T/C [63]: 93.2% | viability, T/C [64]: 85.8% | viability, T/C [65]: 86.9%

IC50 [1]: 3.11 µM | IC50 [2]: 2.29 µM | IC50 [3]: 2.14 µM | IC50 [4]: 3.28 µM | IC50 [5]: 1.24 µM
Compound: O=C(C=Cc1cccc(S(=O)(=O)Nc2ccccc2)c1)NO + Cc1ccccc1N=Nc1ccc(NC(=O)c2ccnn2C)c(C)c1
viability, T/C [36]: 78.6% | viability, T/C [37]: 88.4% | viability, T/C [38]: 73% | viability, T/C [39]: 67.7% | viability, T/C [40]: 49.9% | viability, T/C [41]: 31% | viability, T/C [42]: 85.4% | viability, T/C [43]: 78.3% | viability, T/C [44]: 75.9% | viability, T/C [45]: 62.6% | viability, T/C [46]: 44.8% | viability, T/C [47]: 26.9% | viability, T/C [48]: 77.1% | viability, T/C [49]: 75.6% | viability, T/C [50]: 75.5% | viability, T/C [51]: 70.6% | viability, T/C [52]: 39.5% | viability, T/C [53]: 25% | viability, T/C [54]: 79.7% | viability, T/C [55]: 81.2% | viability, T/C [56]: 75.2% | viability, T/C [57]: 68.9% | viability, T/C [58]: 50.7% | viability, T/C [59]: 25.8% | viability, T/C [60]: 75.4% | viability, T/C [61]: 76.9% | viability, T/C [62]: 64% | viability, T/C [63]: 56.1% | viability, T/C [64]: 34% | viability, T/C [65]: 27.9%

IC50 (curve of compound): > 3 µM
Compound: O=C(C=Cn1cnc(-c2cc(C(F)(F)F)cc(C(F)(F)F)c2)n1)NNc1cnccn1
viability, T/C (compound 0.00949 µM): 102% and 119% and 97.2% | viability, T/C (compound 0.03 µM): 104% and 110% (2×) | viability, T/C (compound 0.0949 µM): 105% and 119% and 115% | viability, T/C (compound 0.3 µM): 115% and 107% and 129% | viability, T/C (compound 0.949 µM): 114% and 113% and 116% | viability, T/C (compound 3 µM): 93.8% and 94.4% and 92.8%

IC50 [1]: > 0.3 µM | IC50 [2]: > 0.3 µM | IC50 [3]: 0.238 µM | IC50 [4]: > 0.3 µM | IC50 [5]: 0.0862 µM
Compound: CCc1c2c(nc3ccc(O)cc13)-c1cc3c(c(=O)n1C2)COC(=O)[C@]3(O)CC + Cc1ccccc1N=Nc1ccc(NC(=O)c2ccnn2C)c(C)c1
viability, T/C [6]: 79.7% | viability, T/C [7]: 94.1% | viability, T/C [8]: 89.5% | viability, T/C [9]: 76.1% | viability, T/C [10]: 59.2% | viability, T/C [11]: 55.1% | viability, T/C [12]: 83.4% | viability, T/C [13]: 89.2% | viability, T/C [14]: 94.8% | viability, T/C [15]: 71.2% | viability, T/C [16]: 54.9% | viability, T/C [17]: 50% | viability, T/C [18]: 90.2% | viability, T/C [19]: 93.2% | viability, T/C [20]: 79.6% | viability, T/C [21]: 72.1% | viability, T/C [22]: 60% | viability, T/C [23]: 47.3% | viability, T/C [24]: 85.1% | viability, T/C [25]: 88.9% | viability, T/C [26]: 80.7% | viability, T/C [27]: 62.8% | viability, T/C [28]: 57.8% | viability, T/C [29]: 50.2% | viability, T/C [30]: 85.4% | viability, T/C [31]: 84.7% | viability, T/C [32]: 76.8% | viability, T/C [33]: 60% | viability, T/C [34]: 50.2% | viability, T/C [35]: 44.7%

IC50 [1]: > 3 µM | IC50 [2]: > 3 µM | IC50 [3]: > 3 µM | IC50 [4]: > 3 µM | IC50 [5]: > 3 µM
Compound: O=C(C=Cn1cnc(-c2cc(C(F)(F)F)cc(C(F)(F)F)c2)n1)NNc1cnccn1 + Cc1ccccc1N=Nc1ccc(NC(=O)c2ccnn2C)c(C)c1
viability, T/C [8]: 106% | viability, T/C [9]: 110% | viability, T/C [10]: 118% | viability, T/C [11]: 140% | viability, T/C (second compound 0.1 µM, first compound 0.949 µM): 121% | viability, T/C (second compound 0.1 µM, first compound 3 µM): 104% | viability, T/C [14]: 105% | viability, T/C [15]: 102% | viability, T/C [16]: 115% | viability, T/C [17]: 133% | viability, T/C (second compound 0.316 µM, first compound 0.949 µM): 103% | viability, T/C (second compound 0.316 µM, first compound 3 µM): 94% | viability, T/C [20]: 97.8% | viability, T/C [21]: 107% | viability, T/C [22]: 128% | viability, T/C [23]: 140% | viability, T/C (second compound 1 µM, first compound 0.949 µM): 110% | viability, T/C (second compound 1 µM, first compound 3 µM): 97.1% | viability, T/C [26]: 102% | viability, T/C [27]: 97.7% | viability, T/C [28]: 109% | viability, T/C [29]: 127% | viability, T/C (second compound 3.16 µM, first compound 0.949 µM): 95.4% | viability, T/C (second compound 3.16 µM, first compound 3 µM): 82.5% | viability, T/C [32]: 90.8% | viability, T/C [33]: 85.8% | viability, T/C [34]: 99.7% | viability, T/C [35]: 128% | viability, T/C (second compound 10 µM, first compound 0.949 µM): 101% | viability, T/C (second compound 10 µM, first compound 3 µM): 79.2%

Reference: PubChem BioAssay AID1919002 (Molecular Pharmacology Branch, DTP, NCI, 2023)
